{
  "source": "patent US20230016034A1",
  "about": "“ENHANCEMENT OF iPSC-DERIVED EFFECTOR IMMUNE CELL USING SMALL COMPOUNDS” (Fate Therapeutics, Inc., priority 2019, published 2023)",
  "system": "Nalm6-luciferase cells",
  "test": "In vivo efficacy of dexamethasone-treated post-thaw CD19-CAR iT cells, systemic Nalm6-luciferase model",
  "parameters": "species or system NSG female mice",
  "details": "p>0.1",
  "text": "Tumor progression was monitored at days 7, 14 and 20 post tumor injection by bioluminescent imaging. CAR-iT cells treated with dexamethasone (FIG. 8B) were compared with control cells without dexamethasone treatment (FIG. 8A) in cultures for iv/iv in vivo efficacy.",
  "data": [
    {"smiles": "C[C@@H]1C[C@H]2[C@@H]3CCC4=CC(=O)C=C[C@]4(C)[C@@]3(F)[C@@H](O)C[C@]2(C)[C@@]1(O)C(=O)CO", "note": "[dexamethasone]", "values": [
      {"measurement": "Days of survival", "result": "> 80", "unit": "days"}
    ]}
  ]
}
